We go through nine molecules from PubChem BioAssay AID1053144 (Broad Institute, 2014).

The assay concerns NPC TCF/LEF luciferase reporter, Wnt3a EC25, 24 h. The experiment in a line: Wnt/beta-catenin signaling activators, dose response, cell-based, iPS-derived NPC, luciferase, Wnt3a, cherry-pick (AID 1053144).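 Note: Wnt3a stimulus is conditioned medium from Wnt3a-transfected mouse L cells at 5% in well.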
Regarding `Cc1cc(-c2nc3ccccc3c(=O)o2)ccc1[N+](=O)[O-]`, the AC30 is 16.2 µM.

With `Cc1cccc(/C(N)=N/OC(=O)c2ccc(Br)o2)c1`, the AC30 is 11.7 µM.

Consider `CC1CCc2c(C(=O)Nc3ccccn3)csc2C1` (centres undefined), for which the AC30 was 4.65 µM.

Turning to `Cc1ccc(/C=N/Nc2nc3ccccc3[nH]2)s1`, the AC30 was 16.1 µM.

As for `CSc1ccc(C(=O)/C=C/c2ccc(N)cc2)cc1`, the AC30 is 6.32 µM.

Take `O=C(Nc1nc2cc3c(cc2s1)OCCO3)c1ccc([N+](=O)[O-])o1`: the AC30 was 9.12 µM.

Consider `CCOC(=O)c1c(C)[nH]c(C(=O)COC(=O)C2(C)CC2(Cl)Cl)c1C` (centres undefined), for which the AC30 is 6.45 µM.

Turning to `Cc1cc(N(C)C)ccc1N=Nc1ccc2ncccc2c1`, the AC30 is 2.2 µM.

Consider `COc1cccc(-c2csc(NC(=O)C3CC3)n2)c1`, for which the AC30 was 13.9 µM.
